How the values were obtained:
A172 = assay: cells; conditions: Homo sapiens, A 172, 72 h, read-out: IC50, 72 h
Experimental: The effect of selected compounds on glioma cells viability was determined. The cells were plated at 2000 cells/well in 96 well plates. The day after, cells were treated with various concentrations of temozolomide or VMY-TP analogs.
Activity of TP-RGD was assessed in glioma cell cultures, as described in Example 11.

[1] = Aqueous chemical stability (HPLC-MS); assay type: physicochemical
Experimental: Detection of products of non-enzymatic cleavage (AIC-TMZ, AIC-TP3, AIC-TP5, and AIC-TP9) was performed (Table 4; FIGS. 5A-5D).

U87-Luc = assay: Orthotopic U87-Luc human glioblastoma tumor xenograft model; assay type: in vivo, Athymic Nude mice; conditions: 10 mg/kg oral gavage
Experimental: Animal studies were performed in accordance with Translational Drug Development, LLC IACUC-approved protocols. Intracranial tumors were generated by injecting 3×10^5 U87-Luc cells in […] of growth media into the right corpus striatum (1 mm anterior and 2 mm lateral to the bregma, depth of 3 mm) of Athymic Nude (Crl:NU(NCr)-Foxn1nu) mice (Charles River, Hollister, CA). Treatment was initiated 7 days after injection. […] Oral gavage treatments were formulated in 10% PEG300 in PBS. Bioluminescence (Total ROI, photons/s) images were performed under anesthesia once weekly starting on Day 1 (7 days post inoculation of U87-Luc cells) and body weights were recorded twice weekly. […] Upon peri-morbidity or at study end, mice were euthanized, brain tumor was excised from right side of brain, and a wet weight was recorded. If tumor was not grossly identifiable, expected tumor-region of the brain was collected. Tissue was fixed in formalin for 48-72 hours and then stored in 70% Ethanol.
A minimum of 100 μL/mouse of whole blood was collected via submandibular survival bleed on Day 10 and Day 27 from 3 mice per group (selected by TD2) from Groups 1, 2 and 4 for assessment of hematological toxicity. Blood was placed in K2-EDTA microtainer tubes (Becton, Dickinson & Co.; Franklin Lakes, NJ) and mixed thoroughly before CBC analysis at TD2.

U251 = assay: cells; conditions: Homo sapiens, U-251, 72 h, read-out: IC50 U251 cell proliferation (BrdU ELISA)
Experimental: U87 cells were seeded at the density of 2,000 cells/well in 96-well plates and incubated overnight. The day after, cells were treated with various concentrations of Temozolomide or analogs for 72 hours. The BrdU ELISA proliferation assay was performed according to the manufacturer's instructions (Roche, #11647229001). Briefly, 20 μl of diluted BrdU labelling reagent was added to each well, to a final concentration of 10 μM BrdU per well. The cells were then incubated at 37° C. for 24 hours. Following this incubation, the labeling medium was aspirated from each well and 200 μl of Roche FixDenat fixing buffer was added. The plates were then incubated at 25° C. for 30 minutes. The fixing solution was removed, and 100 μl of Anti-BrdU-POD antibody was added to each well and incubated again at 25° C. for 90 minutes. Wells were rinsed three times with 200 μl of PBS, then 100 μl of Roche Substrate solution was added to each well. Following a 25 minute incubation at room temperature, the absorbance of each plate was read at 370 nm (reference wavelength: approx. 492 nm) on a Spectramax® i3x microplate reader.
The effect on U251 cell proliferation after 72 hours of treatment was also assessed using the BrdU ELISA cell proliferation assay as described in Example 11.

[2] = background statement; cited from earlier work
U87 cells = assay: U87 subcutaneous flank xenograft GBM model; assay type: in vivo, SCID mice; conditions: 20 mg/kg orally, once daily then every other day, 14 days
Experimental: A suspension of U87 cells was prepared in 1×HBSS, pH 7.4 and mixed with an equal volume (1:1) of ice cold Matrigel®. Then, 0.1 mL of the cell suspension containing 5×10^6 cells was injected subcutaneously using a 22-gauge needle into the flank region of SCID mice. Animals were monitored daily during the period between inoculation and study initiation. Treatment was started when the average tumor size reached approximately ˜100 mm^3. The test (TP3) and Reference compound (TMZ) were administered orally at 20 mg/kg at a dose volume of 10 mL/Kg. The exact dose was administered based on individual animal body weight recorded during the study period. The TP3 and TMZ treatments were scheduled for once daily dosing for 14 days. However, the dose frequency had to be reduced from once daily to every other day, due to a 10-14% loss of body weight seen in the treated mice from Day 9 until study completion (FIG. 11D). The control group was administered vehicle alone. The test and reference compounds were formulated in 0.4% (v/v) Tween 80, 2% (v/v) Glycerol and 97.6% (v/v) of 30% (w/v) Captisol (SPECD). Number of mice per treatment cohort=8. Tumor growth was measured twice weekly using a digital Vernier caliper.

Row | Structure (SMILES) | IC50 (A172) | half-life at 1 μM ([1]; 0.1 M phosphate buffer pH 8.0) | half-life at 1 μM ([1]; PBS pH 7.4) | effect on body weight (U87-Luc; QD×5×4, compared to control) | day 22 mean BLI value (U87-Luc; QD×5×4, control 2.43E+08) | IC50 (U251) | retention in the cerebral parenchyma [2] | half-life at 1 μM ([1]; 0.1 M phosphate buffer pH 7.0) | tumor volume (U87 cells) | tumor weight (U87 cells)
1 | Cn1nnc2c(C(N)=O)ncn2c1=O [TMZ, temozolomide] | > 100 µM | 31 min | 59 min | impacted body weight | 1.87E+06 photon/s | > 200 µM | 20% | – | – | –
2 | CCCCCCNC(=O)c1ncn2c(=O)n(C)nnc12 [TP3, N-hexyl-3-methyl-4-oxo-3,4-dihydroimidazo[5,1-d][1,2,3,5]tetrazine-8-carboxamide] | – | 39 min | 62 min | – | – | – | – | 119 min | significantly reduced | significantly reduced

Reference: patent US20230303577A1, “TEMOZOLOMIDE ANALOGS AND METHODS OF USE” (St. John's Cancer Institute, priority 2020, published 2023)
